According to patent US8575201B2 (Boehringer Ingelheim International GmbH, priority 2010, dated 2013):

Columns and labels:
[1] = molecular target: recombinant human FLAP protein (Homo sapiens (Human), UniProt P20292); assay: FLAP binding assay (Scintillation Proximity Assay, displacement of [125I]L-691,831); settings: read-out: FLAP SPA IC50
Outline: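 Scintillation proximity displacement of an iodinated (125I) FLAP inhibitor by test compounds, using 100,000×g membrane fraction from lysed cells. Final beads 200 μg/well and protein 5 μg/well; plates shaken 2 h before reading.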

[2] = system: synthesis of LTB4 in human whole blood; assay: Human whole blood LTB4 production inhibition assay; format: cell-based; settings: calcimycin stimulated, read-out: hWB LTB4 IC50
Outline: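 Readout: plasma LTB4 by antibody-based HTRF. Compound added to heparinized human whole blood, 15 min 37° C; calcimycin 20 μM final (PBS pH 7.4), 30 min 37° C; spun 1500×g 5 min, plasma taken.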

Chain of recombinant human FLAP protein (P20292 whole entry): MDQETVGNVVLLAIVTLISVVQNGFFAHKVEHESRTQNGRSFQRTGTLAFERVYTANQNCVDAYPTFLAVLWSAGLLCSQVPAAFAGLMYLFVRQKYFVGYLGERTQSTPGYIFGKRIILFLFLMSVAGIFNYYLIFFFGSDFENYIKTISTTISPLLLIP

| SMILES | IC50 [1] | IC50 [2] |
| --- | --- | --- |
| Nc1ncc(-c2ccc(C3(c4noc(-c5ccc(Cl)nc5)n4)CCC3)cn2)cn1 [Example 99, 5-(5-{1-[5-(6-chloropyridin-3-yl)-1,2,4-oxadiazol-3-yl]cyclobutyl}pyridin-2-yl)pyrimidin-2-amine] | 7.5 nM | 660 nM |
| Nc1ncc(-c2ccc(C3(c4noc(-c5cncnc5)n4)CCC3)cn2)cn1 [Example 100, 5-(5-{1-[5-(pyrimidin-5-yl)-1,2,4-oxadiazol-3-yl]cyclobutyl}pyridin-2-yl)pyrimidin-2-amine] | 120 nM | 960 nM |
| Cc1cc(-c2nc(C3(c4ccc(-c5cnc(N)nc5)nc4)CCC3)no2)ccn1 [Example 101, 5-(5-{1-[5-(2-methylpyridin-4-yl)-1,2,4-oxadiazol-3-yl]cyclobutyl}pyridin-2-yl)pyrimidin-2-amine] | 24 nM | 820 nM |
| Cn1cc(-c2nc(C3(c4ccc(-c5cnc(N)nc5)nc4)CCC3)no2)cn1 [Example 102, 5-(5-{1-[5-(1-methyl-1H-pyrazol-4-yl)-1,2,4-oxadiazol-3-yl]cyclobutyl}pyridin-2-yl)pyrimidin-2-amine] | 13 nM | 270 nM |
| Cc1n[nH]c(C)c1-c1nc(C2(c3ccc(-c4cnc(N)nc4)nc3)CCC2)no1 [Example 103, 5-(5-{1-[5-(3,5-dimethyl-1H-pyrazol-4-yl)-1,2,4-oxadiazol-3-yl]cyclobutyl}pyridin-2-yl)pyrimidin-2-amine] | 14 nM | 1000 nM |
| Nc1ncc(-c2ccc(C3(c4noc(-c5ccnnc5)n4)CCC3)cn2)cn1 [Example 104, 5-(5-{1-[5-(pyridazin-4-yl)-1,2,4-oxadiazol-3-yl]cyclobutyl}pyridin-2-yl)pyrimidin-2-amine] | 110 nM | 2100 nM |
| Nc1ncc(-c2ccc(C3(c4noc(-c5cccnc5N)n4)CCC3)cn2)cn1 [Example 105, 5-(5-{1-[5-(2-aminopyridin-3-yl)-1,2,4-oxadiazol-3-yl]cyclobutyl}pyridin-2-yl)pyrimidin-2-amine] | 17 nM | 570 nM |
| Nc1ncc(-c2ccc(C3(c4noc(-c5cnccc5N)n4)CCC3)cn2)cn1 [Example 106, 5-(5-{1-[5-(4-aminopyridin-3-yl)-1,2,4-oxadiazol-3-yl]cyclobutyl}pyridin-2-yl)pyrimidin-2-amine] | 31 nM | 840 nM |
| Nc1ncc(-c2ccc(C3(c4noc(-c5cnccc5O)n4)CCC3)cn2)cn1 [Example 107, 3-(3-{1-[6-(2-aminopyrimidin-5-yl)pyridin-3-yl]cyclobutyl}-1,2,4-oxadiazol-5-yl)pyridin-4-ol] | 190 nM | 4000 nM |
| Nc1ncc(-c2ccc(C3(c4noc(-c5ccc(=O)[nH]c5)n4)CCC3)cn2)cn1 [Example 108, 5-(3-{1-[6-(2-aminopyrimidin-5-yl)pyridin-3-yl]cyclobutyl}-1,2,4-oxadiazol-5-yl)pyridin-2(1H)-one] | 48 nM | 720 nM |
| Nc1ncc(-c2ccc(C3(c4noc(-c5cccnc5C(F)(F)F)n4)CCC3)cn2)cn1 [Example 109, 5-[5-(1-{5-[2-(trifluoromethyl)pyridin-3-yl]-1,2,4-oxadiazol-3-yl}cyclobutyl)pyridin-2-yl]pyrimidin-2-amine] | 14 nM | 1500 nM |
| CN(C)c1ccc(-c2nc(C3(c4ccc(-c5cnc(N)nc5)nc4)CCC3)no2)cn1 [Example 110, 5-[5-(1-{5-[6-(dimethylamino)pyridin-3-yl]-1,2,4-oxadiazol-3-yl}cyclobutyl)pyridin-2-yl]pyrimidin-2-amine] | 2.4 nM | 310 nM |
| Nc1ccc(-c2nc(C3(c4ccc(-c5cnc(N)nc5)nc4)CCC3)no2)cn1 [Example 111, 5-(5-{1-[5-(6-aminopyridin-3-yl)-1,2,4-oxadiazol-3-yl]cyclobutyl}pyridin-2-yl)pyrimidin-2-amine] | 4.2 nM | 74 nM |
| Nc1ncc(-c2ccc(C3(c4noc(-c5ccc(N6CCCC6)nc5)n4)CCC3)cn2)cn1 [Example 112, 5-[5-(1-{5-[6-(pyrrolidin-1-yl)pyridin-3-yl]-1,2,4-oxadiazol-3-yl}cyclobutyl)pyridin-2-yl]pyrimidin-2-amine] | 3.3 nM | 570 nM |
| CNc1ccc(-c2nc(C3(c4ccc(-c5cnc(N)nc5)nc4)CCC3)no2)cn1 [Example 113, 5-[5-(1-{5-[6-(methylamino)pyridin-3-yl]-1,2,4-oxadiazol-3-yl}cyclobutyl)pyridin-2-yl]pyrimidin-2-amine] | 2.4 nM | 100 nM |
| CC(C)Nc1ccc(-c2nc(C3(c4ccc(-c5cnc(N)nc5)nc4)CCC3)no2)cn1 [Example 114, 5-[5-(1-{5-[6-(propan-2-ylamino)pyridin-3-yl]-1,2,4-oxadiazol-3-yl}cyclobutyl)pyridin-2-yl]pyrimidin-2-amine] | 1.5 nM | 280 nM |

| SMILES | IC50 [1] | IC50 [2] |
| --- | --- | --- |
| Nc1ncc(-c2ccc(C3(c4noc(-c5ccc(NCCO)nc5)n4)CCC3)cn2)cn1 [Example 115, 2-{[5-(3-{1-[6-(2-aminopyrimidin-5-yl)pyridin-3-yl]cyclobutyl}-1,2,4-oxadiazol-5-yl)pyridin-2-yl]amino}ethanol] | 1.9 nM | 49 nM |
| CN(CCO)c1ccc(-c2nc(C3(c4ccc(-c5cnc(N)nc5)nc4)CCC3)no2)cn1 [Example 116, 2-{[5-(3-{1-[6-(2-aminopyrimidin-5-yl)pyridin-3-yl]cyclobutyl}-1,2,4-oxadiazol-5-yl)pyridin-2-yl](methyl)amino}ethanol] | 4.3 nM | 140 nM |
| COCCN(C)c1ccc(-c2nc(C3(c4ccc(-c5cnc(N)nc5)nc4)CCC3)no2)cn1 [Example 117, 5-{5-[1-(5-{6-[(2-methoxyethyl)(methyl)amino]pyridin-3-yl}-1,2,4-oxadiazol-3-yl)cyclobutyl]pyridin-2-yl}pyrimidin-2-amine] | 3 nM | 120 nM |
| COCCNc1ccc(-c2nc(C3(c4ccc(-c5cnc(N)nc5)nc4)CCC3)no2)cn1 [Example 118, 5-{5-[1-(5-{6-[(2-methoxyethyl)amino]pyridin-3-yl}-1,2,4-oxadiazol-3-yl)cyclobutyl]pyridin-2-yl}pyrimidin-2-amine] | 2.8 nM | 84 nM |
| CS(=O)(=O)c1ccc(-c2nc(C3(c4ccc(-c5cnc(N)nc5)nc4)CCC3)no2)cn1 [Example 119, 5-[5-(1-{5-[6-(methylsulfonyl)pyridin-3-yl]-1,2,4-oxadiazol-3-yl}-cyclobutyl)pyridin-2-yl]pyrimidin-2-amine] | 62 nM | 230 nM |
| Nc1ncc(-c2ccc(C3(c4noc(-c5nc[nH]n5)n4)CCC3)cn2)cn1 [Example 120, 5-(5-{1-[5-(1H-1,2,4-triazol-3-yl)-1,2,4-oxadiazol-3-yl]cyclobutyl}pyridin-2-yl)pyrimidin-2-amine] | 200 nM | > 5000 nM |
| Cc1cc(-c2nc(C3(c4ccc(-c5cnc(N)nc5)nc4)CCC3)no2)n(C)n1 [Example 121, 5-(5-{1-[5-(1,3-dimethyl-1H-pyrazol-5-yl)-1,2,4-oxadiazol-3-yl]cyclobutyl}pyridin-2-yl)pyrimidin-2-amine] | 28 nM | 1800 nM |
| CNc1ncccc1-c1nc(C2(c3ccc(-c4cnc(N)nc4)nc3)CCC2)no1 [Example 122, 5-[5-(1-{5-[2-(methylamino)pyridin-3-yl]-1,2,4-oxadiazol-3-yl}cyclobutyl)pyridin-2-yl]pyrimidin-2-amine] | 28 nM | 3800 nM |
| Nc1ncc(-c2ccc(C3(c4noc(-c5cncs5)n4)CCC3)cn2)cn1 [Example 123, 5-(5-{1-[5-(1,3-thiazol-5-yl)-1,2,4-oxadiazol-3-yl]cyclobutyl}pyridin-2-yl)pyrimidin-2-amine] | 31 nM | 790 nM |
| Cn1nccc1-c1nc(C2(c3ccc(-c4cnc(N)nc4)nc3)CCC2)no1 [Example 124, 5-(5-{1-[5-(1-methyl-1H-pyrazol-5-yl)-1,2,4-oxadiazol-3-yl]cyclobutyl}pyridin-2-yl)pyrimidin-2-amine] | 11 nM | 210 nM |
| Nc1ncc(-c2ccc(C3(c4noc(-c5ccc(N6CCNC(=O)C6)nc5)n4)CCC3)cn2)cn1 [Example 125, 4-[5-(3-{1-[6-(2-aminopyrimidin-5-yl)pyridin-3-yl]cyclobutyl}-1,2,4-oxadiazol-5-yl)pyridin-2-yl]piperazin-2-one] | 1.8 nM | 160 nM |
| CN(C)c1ncccc1-c1nc(C2(c3ccc(-c4cnc(N)nc4)nc3)CCC2)no1 [Example 126, 5-[5-(1-{5-[2-(dimethylamino)pyridin-3-yl]-1,2,4-oxadiazol-3-yl}cyclobutyl)pyridin-2-yl]pyrimidin-2-amine] | 34 nM | > 5000 nM |
| Cn1ccc(-c2nc(C3(c4ccc(-c5cnc(N)nc5)nc4)CCC3)no2)n1 [Example 127, 5-(5-{1-[5-(1-methyl-1H-pyrazol-3-yl)-1,2,4-oxadiazol-3-yl]cyclobutyl}pyridin-2-yl)pyrimidin-2-amine] | 40 nM | 640 nM |
| Nc1ncc(-c2ccc(C3(c4noc(-c5cccnc5N5CCOCC5)n4)CCC3)cn2)cn1 [Example 128, 5-[5-(1-{5-[2-(morpholin-4-yl)pyridin-3-yl]-1,2,4-oxadiazol-3-yl}cyclobutyl)pyridin-2-yl]pyrimidin-2-amine] | 66 nM | 2700 nM |
| Nc1ncc(-c2ccc(C3(c4noc(-c5cnccn5)n4)CCC3)cn2)cn1 [Example 129, 5-(5-{1-[5-(pyrazin-2-yl)-1,2,4-oxadiazol-3-yl]cyclobutyl}pyridin-2-yl)pyrimidin-2-amine] | 47 nM | 630 nM |
| Cc1cnc(-c2nc(C3(c4ccc(-c5cnc(N)nc5)nc4)CCC3)no2)cn1 [Example 130, 5-(5-{1-[5-(5-methylpyrazin-2-yl)-1,2,4-oxadiazol-3-yl]cyclobutyl}pyridin-2-yl)pyrimidin-2-amine] | 26 nM | 350 nM |
